Legend:
[1] = target: T1, OGFOD1 (Homo sapiens, UniProt Q8N543); assay: 2OG displacement from OGFOD1 by CPMG-edited 1H NMR; assay type: binding; settings: 10 µM 2OG, 10 µM OGFOD1, 70 µM inhibitor
T1 sequence (Q8N543 1-542): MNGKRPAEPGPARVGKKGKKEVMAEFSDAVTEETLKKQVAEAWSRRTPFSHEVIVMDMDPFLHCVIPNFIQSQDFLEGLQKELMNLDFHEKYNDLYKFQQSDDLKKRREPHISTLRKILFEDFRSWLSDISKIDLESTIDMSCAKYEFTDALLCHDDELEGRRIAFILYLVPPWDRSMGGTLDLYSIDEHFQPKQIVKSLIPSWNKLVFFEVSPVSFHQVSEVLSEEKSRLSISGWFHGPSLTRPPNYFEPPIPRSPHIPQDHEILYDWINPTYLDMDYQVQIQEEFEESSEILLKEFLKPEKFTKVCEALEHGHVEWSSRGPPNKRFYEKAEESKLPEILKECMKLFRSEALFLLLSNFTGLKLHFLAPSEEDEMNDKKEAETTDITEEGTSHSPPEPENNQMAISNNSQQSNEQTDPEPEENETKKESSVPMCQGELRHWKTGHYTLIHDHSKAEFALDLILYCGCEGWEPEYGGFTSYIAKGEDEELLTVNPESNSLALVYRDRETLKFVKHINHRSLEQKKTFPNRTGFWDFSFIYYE
Procedure: (§1) total echo time of 40 ms, a relaxation delay of 2 s, with 256 scans. Water suppression was achieved by presaturation. Samples contained 30 µM apo-PHD2181-426 or OGFOD1, supplemented with 60 µM Zn(II), 30 µM of inhibitor, all in 50 mM Tris-d11, pH 7.5, 10 % D2O, […]
(§2) wLOGSY Binding Experiments: For water-ligand observed gradient spectroscopy (wLOGSY) analyses, typical experimental parameters were the following: mixing time, 1 s; relaxation delay, 2 s; number of transients, 512. Solvent excitation was achieved using a 16-ms 180° selective rectangular shape pulse with 1,000 points (Squa100.1000) set at the H2O frequency. […]
(§3) Competition Experiments by 2OG Displacement: 2OG displacement assays[12] were performed using CPMG-edited 1H spectra. […] The 2OG methylene resonance at 2.35 ppm was monitored. […]
(§4) HeLa cells were cultured in DMEM media supplemented with 10 % fetal bovine serum, 4 mM L-glutamine, 100 U/mL penicillin, and 100 µg/mL streptomycin. […] Cell extracts were analyzed by SDS-PAGE, electroblotted onto PVDF membranes (Millipore) and probed with anti-HIF-1α antibody (clone 54, BD Transduction Laboratories) at 1:1000 dilution for 1 h at room temperature. […] Target proteins were detected with SuperSignal Chemiluminescent […]
(§5) Figure S15. Single-concentration qualitative 2OG displacement as monitored by CPMG-edited 1H NMR spectroscopy. […]

[2] = target: T2, PHD2 (Homo sapiens, UniProt Q9GZT9); assay: 2OG displacement from PHD2 by CPMG-edited 1H NMR; assay type: binding; settings: 10 µM 2OG, 10 µM PHD2, 70 µM inhibitor
T2 construct: 181-426 or OGFOD1
T2 sequence (Q9GZT9 181-426 limits assumed): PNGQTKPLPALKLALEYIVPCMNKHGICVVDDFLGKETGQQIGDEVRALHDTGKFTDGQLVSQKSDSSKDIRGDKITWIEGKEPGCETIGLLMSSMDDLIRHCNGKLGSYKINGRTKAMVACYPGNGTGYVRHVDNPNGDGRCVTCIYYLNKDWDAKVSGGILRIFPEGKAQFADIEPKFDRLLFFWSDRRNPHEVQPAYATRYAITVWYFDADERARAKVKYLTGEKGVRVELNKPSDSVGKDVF
Procedure: as §1, §2, §3, §4, §5

[3] = target: FIH (Homo sapiens, UniProt Q9NWT6); assay: FIH assay, MALDI-TOF MS detection of hydroxylation; assay type: biochemical
Sequence of FIH (Q9NWT6 whole entry): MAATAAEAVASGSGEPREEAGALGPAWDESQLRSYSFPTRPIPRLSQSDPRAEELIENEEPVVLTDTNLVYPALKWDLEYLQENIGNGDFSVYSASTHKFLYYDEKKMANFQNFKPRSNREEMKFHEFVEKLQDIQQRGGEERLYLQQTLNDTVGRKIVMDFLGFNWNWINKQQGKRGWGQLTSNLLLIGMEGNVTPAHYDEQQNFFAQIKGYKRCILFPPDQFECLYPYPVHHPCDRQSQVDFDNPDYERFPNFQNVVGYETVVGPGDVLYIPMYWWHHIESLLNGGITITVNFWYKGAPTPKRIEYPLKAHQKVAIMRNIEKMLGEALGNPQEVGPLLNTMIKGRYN

Row | SMILES | displacement of bound 2OG from OGFOD1, in words [1] | displacement of bound 2OG from PHD2, in words [2] | IC50 [3] [µM]
1 | Cn1c(O)c(C(=O)CCc2cccs2)c(=O)n(C)c1=O [compound 42] | capable of displacing bound 2OG from the active site of OGFOD1 | not from that of PHD2 | > 100
2 | Cn1c(O)c(C(=O)CCc2ccccc2)c(=O)n(C)c1=O [compound 26] | capable of displacing bound 2OG from the active site of OGFOD1 | not from that of PHD2 | > 100

Reference: article PMC6471485, “Selective Inhibitors of a Human Prolyl Hydroxylase (OGFOD1) Involved in Ribosomal Decoding” (Chemistry (Weinheim an Der Bergstrasse, Germany), 2019)
